Assay results reported in PubChem BioAssay AID248 (DTP/NCI, 2004).
Values joined by “and” are separate entries in the source; they are usually repeats but may differ in a detail not shown here. Identical values can stand only once. Inconclusive results and toxic doses are left out. Rule as the data show it: active = T/C of 150% or more; inactive = T/C below 125%.

Test system: L1210 leukemia ip in BDF1 mice, survival T/C
Experiment: NCI In Vivo Anticancer Drug Screen. Data for tumor model L1210 Leukemia (intraperitoneal) in B6D2F1 (BDF1) mice
Details: higher = longer survival
Method in brief: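 Read-out is survival time, reported as the treated-group measurement over the vehicle-control measurement.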

Measured: T/C

COc1cccc2c1C(=O)c1c(O)c3c(c(O)c1C2=O)C[C@@](O)(C(C)=O)C[C@@H]3OC1CC(N)C(O)C(C)O1 (stereo partly specified)
inactive: endpoint: mean survival time, dose: 0.05 mg/kg/injection, schedule: Q01DX009 (ip), vehicle: saline 105 % of control | endpoint: mean survival time, dose: 0.1 mg/kg/injection, schedule: Q01DX015 (ip), vehicle: water 104 % of control | endpoint: mean survival time, dose: 0.1 mg/kg/injection, schedule: Q02DX008 (ip), vehicle: water 97 % of control | endpoint: mean survival time, dose: 0.14 mg/kg/injection, schedule: Q04DX002 (ip), vehicle: saline 104 % of control and 105 % of control | endpoint: mean survival time, dose: 0.14 mg/kg/injection, schedule: Q## X004 (ip), vehicle: water 103 % of control | endpoint: mean survival time, dose: 0.15 mg/kg/injection, schedule: Q02DX008 (ip), vehicle: water 106 % of control | endpoint: mean survival time, dose: 0.25 mg/kg/injection, schedule: Q04DX003 (ip), vehicle: water 104 % of control | endpoint: mean survival time, dose: 0.27 mg/kg/injection, schedule: Q04DX002 (ip), vehicle: saline 94 % of control | endpoint: mean survival time, dose: 0.54 mg/kg/injection, schedule: Q04DX002 (ip), vehicle: saline 100 % of control | endpoint: mean survival time, dose: 1.0 mg/kg/injection, schedule: Q03HX024 (ip), vehicle: water 103 % of control | endpoint: mean survival time, dose: 1.0 mg/kg/injection, schedule: Q04DX005 (ip), vehicle: saline 105 % of control | endpoint: mean survival time, dose: 1.3 mg/kg/injection, schedule: Q02DX005 (ip), vehicle: saline 97 % of control | endpoint: mean survival time, dose: 1.8 mg/kg/injection, schedule: Q## X032 (ip), vehicle: water 95 % of control | endpoint: mean survival time, dose: 2.0 mg/kg/injection, schedule: Q02DX005 (ip), vehicle: saline 102 % of control | endpoint: mean survival time, dose: 2.0 mg/kg/injection, schedule: Q02DX009 (ip), vehicle: saline 102 % of control | endpoint: mean survival time, dose: 2.0 mg/kg/injection, schedule: Q03HX024 (ip), vehicle: water 100 % of control | endpoint: mean survival time, dose: 2.7 mg/kg/injection, schedule: Q## X032 (ip), vehicle: water 100 % of control | endpoint: mean survival time, dose: 3.33 mg/kg/injection, schedule: Q01DX Z (ip), vehicle: saline 105 % of control | endpoint: mean survival time, dose: 3.95 mg/kg/injection, schedule: Q01DX Z (oral), vehicle: saline 101 % of control | endpoint: mean survival time, dose: 4.0 mg/kg/injection, schedule: Q01DX003 (ip), vehicle: saline 103 % of control | endpoint: mean survival time, dose: 4.0 mg/kg/injection, schedule: Q01DX005 (ip), vehicle: saline 102 % of control | endpoint: mean survival time, dose: 4.0 mg/kg/injection, schedule: Q01DX010 (ip), vehicle: saline 92 % of control and 103 % of control | endpoint: mean survival time, dose: 4.0 mg/kg/injection, schedule: Q01DX014 (ip), vehicle: saline 100 % of control | endpoint: mean survival time, dose: 4.0 mg/kg/injection, schedule: Q04DX005 (ip), vehicle: saline 106 % of control | endpoint: mean survival time, dose: 4.0 mg/kg/injection, schedule: Q06HX004 (ip), vehicle: water 102 % of control | endpoint: mean survival time, dose: 4.0 mg/kg/injection, schedule: Q## X Z (ip), vehicle: water 104 % of control | endpoint: mean survival time, dose: 5.0 mg/kg/injection, schedule: Q01DX009 (oral), vehicle: saline 104 % of control | endpoint: mean survival time, dose: 5.0 mg/kg/injection, schedule: Q01DX Z (ip), vehicle: saline 95 % of control | endpoint: mean survival time, dose: 5.92 mg/kg/injection, schedule: Q01DX Z (oral), vehicle: saline 106 % of control | endpoint: mean survival time, dose: 6.0 mg/kg/injection, schedule: Q01DX014 (ip), vehicle: saline 105 % of control | endpoint: mean survival time, dose: 6.25 mg/kg/injection, schedule: Q01DX009 (ip), vehicle: saline 95 % of control | endpoint: mean survival time, dose: 8.0 mg/kg/injection, schedule: Q01DX001 (ip), vehicle: water 98 % of control | endpoint: mean survival time, dose: 8.0 mg/kg/injection, schedule: Q01DX015 (ip), vehicle: saline 103 % of control | endpoint: mean survival time, dose: 8.88 mg/kg/injection, schedule: Q01DX001 (ip), vehicle: saline 105 % of control | endpoint: mean survival time, dose: 8.88 mg/kg/injection, schedule: Q01DX Z (oral), vehicle: saline 100 % of control | endpoint: mean survival time, dose: 9.0 mg/kg/injection, schedule: Q## X032 (ip), vehicle: water 104 % of control | endpoint: mean survival time, dose: 10.0 mg/kg/injection, schedule: Q04DX003 (ip), vehicle: water 104 % of control | endpoint: mean survival time, dose: 12.0 mg/kg/injection, schedule: Q02DX008 (ip), vehicle: saline 102 % of control | endpoint: mean survival time, dose: 12.5 mg/kg/injection, schedule: Q01DX001 (oral), vehicle: water 103 % of control | endpoint: mean survival time, dose: 13.0 mg/kg/injection, schedule: Q## X004 (ip), vehicle: saline 96 % of control | endpoint: mean survival time, dose: 13.3 mg/kg/injection, schedule: Q01DX001 (ip), vehicle: saline 94 % of control and 95 % of control | endpoint: mean survival time, dose: 13.3 mg/kg/injection, schedule: Q01DX Z (oral), vehicle: saline 98 % of control | endpoint: mean survival time, dose: 13.33 mg/kg/injection, schedule: Q#B X Z (oral), vehicle: water 103 % of control | endpoint: mean survival time, dose: 20.0 mg/kg/injection, schedule: Q01DX001 (ip), vehicle: water 95 % of control | endpoint: mean survival time, dose: 20.0 mg/kg/injection, schedule: Q01DX Z (oral), vehicle: saline 106 % of control | endpoint: mean survival time, dose: 25.0 mg/kg/injection, schedule: Q01DX001 (oral), vehicle: water 94 % of control | endpoint: mean survival time, dose: 25.0 mg/kg/injection, schedule: Q04DX002 (ip), vehicle: saline 97 % of control | endpoint: mean survival time, dose: 30.0 mg/kg/injection, schedule: Q01DX001 (ip), vehicle: saline 95 % of control | endpoint: mean survival time, dose: 30.0 mg/kg/injection, schedule: Q01DX Z (oral), vehicle: saline 102 % of control | endpoint: mean survival time, dose: 45.0 mg/kg/injection, schedule: Q01DX Z (oral), vehicle: saline 102 % of control | endpoint: mean survival time, dose: 50.0 mg/kg/injection, schedule: Q01DX001 (oral), vehicle: water 97 % of control | endpoint: mean survival time, dose: 80.0 mg/kg/injection, schedule: Q01DX010 (oral), vehicle: saline 103 % of control | endpoint: mean survival time, dose: 80.0 mg/kg/injection, schedule: Q07DX Z (oral), vehicle: water 97 % of control | endpoint: mean survival time, dose: 100.0 mg/kg/injection, schedule: Q01DX001 (oral), vehicle: water 100 % of control | endpoint: mean survival time, dose: 160.0 mg/kg/injection, schedule: Q07DX Z (oral), vehicle: water 101 % of control | endpoint: median survival time, dose: 0.05 mg/kg/injection, schedule: Q01DX001 (ip), vehicle: saline 100 % of control | endpoint: median survival time, dose: 0.2 mg/kg/injection, schedule: Q01DX001 (ip), vehicle: saline 94 % of control and 100 % of control | endpoint: median survival time, dose: 0.28 mg/kg/injection, schedule: Q03HX008 (ip), vehicle: water 105 % of control | endpoint: median survival time, dose: 0.8 mg/kg/injection, schedule: Q01DX001 (ip), vehicle: saline 100 % of control | endpoint: median survival time, dose: 1.75 mg/kg/injection, schedule: Q04DX003 (ip), vehicle: water 94 % of control | endpoint: median survival time, dose: 1.8 mg/kg/injection, schedule: Q01DX005 (ip), vehicle: water 105 % of control | endpoint: median survival time, dose: 2.0 mg/kg/injection, schedule: Q01DX001 (iv), vehicle: water 99 % of control | endpoint: median survival time, dose: 2.0 mg/kg/injection, schedule: Q01DX005 (ip), vehicle: other 106 % of control | endpoint: median survival time, dose: 2.0 mg/kg/injection, schedule: Q03HX008 (ip), vehicle: water 94 % of control | endpoint: median survival time, dose: 2.6 mg/kg/injection, schedule: Q04DX003 (ip), vehicle: water 105 % of control | endpoint: median survival time, dose: 3.0 mg/kg/injection, schedule: Q01DX005 (ip), vehicle: water 100 % of control | endpoint: median survival time, dose: 3.0 mg/kg/injection, schedule: Q04DX003 (sc), vehicle: water 99 % of control and 100 % of control | endpoint: median survival time, dose: 3.9 mg/kg/injection, schedule: Q01DX001 (ip), vehicle: water 100 % of control | endpoint: median survival time, dose: 3.9 mg/kg/injection, schedule: Q04DX003 (ip), vehicle: water 100 % of control | endpoint: median survival time, dose: 4.0 mg/kg/injection, schedule: Q01DX001 (ip), vehicle: saline 106 % of control | endpoint: median survival time, dose: 4.0 mg/kg/injection, schedule: Q01DX001 (iv), vehicle: water 102 % of control | endpoint: median survival time, dose: 5.0 mg/kg/injection, schedule: Q01DX017 (ip), vehicle: water 105 % of control | endpoint: median survival time, dose: 5.0 mg/kg/injection, schedule: Q04DX003 (ip), vehicle: Klucel (hydroxypropylcellulose) (HPC) 105 % of control | endpoint: median survival time, dose: 5.9 mg/kg/injection, schedule: Q01DX001 (ip), vehicle: water 105 % of control | endpoint: median survival time, dose: 5.9 mg/kg/injection, schedule: Q04DX003 (ip), vehicle: water 100 % of control | endpoint: median survival time, dose: 8.0 mg/kg/injection, schedule: Q01DX001 (iv), vehicle: water 102 % of control | endpoint: median survival time, dose: 8.3 mg/kg/injection, schedule: Q04DX003 (ip), vehicle: Klucel (hydroxypropylcellulose) (HPC) 94 % of control and 97 % of control | endpoint: median survival time, dose: 8.9 mg/kg/injection, schedule: Q01DX001 (ip), vehicle: water 94 % of control | endpoint: median survival time, dose: 10.0 mg/kg/injection, schedule: Q01DX001 (ip), vehicle: water 97 % of control and 100 % of control | endpoint: median survival time, dose: 10.0 mg/kg/injection, schedule: Q04DX003 (ip), vehicle: water 100 % of control | endpoint: median survival time, dose: 13.3 mg/kg/injection, schedule: Q01DX001 (ip), vehicle: water 100 % of control | endpoint: median survival time, dose: 25.0 mg/kg/injection, schedule: Q04DX003 (sc), vehicle: water 100 % of control and 102 % of control | endpoint: median survival time, dose: 39.0 mg/kg/injection, schedule: Q04DX003 (sc), vehicle: water 99 % of control and 100 % of control

CCCCNC(=S)C(CC)CCCC (stereo unspecified)
inactive: endpoint: mean survival time, dose: 100.0 mg/kg/injection, schedule: Q04DX002 (sc), vehicle: olive oil, sesame oil, peanut oil 99 % of control | endpoint: mean survival time, dose: 200.0 mg/kg/injection, schedule: Q04DX002 (sc), vehicle: olive oil, sesame oil, peanut oil 99 % of control | endpoint: mean survival time, dose: 400.0 mg/kg/injection, schedule: Q04DX002 (sc), vehicle: olive oil, sesame oil, peanut oil 99 % of control
